Measured values published in US12398154B2, “Azaquinazoline pan-KRas inhibitors” (Mirati Therapeutics, Inc., priority 2020, dated 2025).
pIC50: −log10 of the molar value.

Experiments:
[1] = target: KRas G12R (Homo sapiens, UniProt P01116, G12R); assay: biochemical;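 note: TR-FRET displacement assay of compound binding to KRas, read after one hour at room temperature, potency from a four-parameter fit of percent-of-control values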
Method: (§1) The ability of a compound to bind to KRas was measured using a TR-FRET displacement assay. […] After a 60-minute incubation at room temperature, the reaction was measured using a BMG LABTECH CLARIO star Plus via TR-FRET. […] The POC values were fit to a 4-parameter IC50 equation and the IC50 value reported.

[2] = target: KRas G12D (Homo sapiens, UniProt P01116, G12D); assay: biochemical;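 note: TR-FRET displacement binding assay on KRas, read after a one-hour incubation at room temperature, IC50 fitted from percent-of-control values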
Method: as §1

[3] = test system: pERK in MKN1 cells; assay: Inhibition of KRas phosphorylation of ERK (Cisbio HTRF pERK assay); conditions: Homo sapiens, MKN-1, 3 h, read-out: Inhibition (HTRF IC50) of KRas-mediated Phosphorylation of ERK, MKN1
[4] = test system: pERK in HCT116 cells; assay: as above; conditions: Homo sapiens, HCT-116, read-out: Inhibition (HTRF IC50) of KRas-mediated Phosphorylation of ERK, HCT116
[5] = target: KRas G12V (Homo sapiens, UniProt P01116, G12V); assay: biochemical;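 note: KRas binding measured by TR-FRET displacement at room temperature, IC50 fitted from percent of control values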
Method: as §1

[6] = test system: pERK in ASPC1 cells; assay: Inhibition of KRas phosphorylation of ERK (Cisbio HTRF pERK assay); conditions: Homo sapiens, ASPC1, read-out: Inhibition (HTRF IC50) of KRas-mediated Phosphorylation of ERK, AsPC-1
[7] = test system: pERK in PSN1 cells; assay: as above; conditions: Homo sapiens, PSN1, 3 h, read-out: Inhibition (HTRF IC50) of KRas-mediated Phosphorylation of ERK, PSN1
[8] = target: KRas G12C (Homo sapiens, UniProt P01116, G12C); assay: biochemical;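 note: binding to KRas assessed by TR-FRET displacement after one hour incubation at room temperature, potency fitted from percent-of-control values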
Method: as §1

[9] = target: KRas WT (Homo sapiens, UniProt P01116); assay: biochemical;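 note: binding to KRas read as TR-FRET displacement after a one-hour room-temperature incubation, IC50 derived from percent-of-control values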
Method: as §1

[10] = test system: pERK in H727 cells; assay: Inhibition of KRas phosphorylation of ERK (Cisbio HTRF pERK assay); conditions: Homo sapiens, NCI-H727, read-out: Inhibition (HTRF IC50) of KRas-mediated Phosphorylation of ERK, H727
Method: To harvest cells from flask using 0.05% Trypsin/EDTA solution. Add 10 mL of media to stop trypsinizing. Pipette the cells into a conical bottom 50 mL centrifuge tube and centrifuge 5 min×1000 rpm. • 2. Re-suspend the cell pellet in media, take a cell count, and then adjust the cell density using fresh media. • 3. Seed 6,000 cells into cell culture plate with 50 μL media. […] Incubate cell plate overnight in a 37° C., 5% CO2 incubator. • Compound titrations • 1. Use Tecan to complete the compound addition. Compounds start from 10 uM top, 3-fold dilution, and 10 doses. The final DMSO concentration is 0.8%. Dispensed 0.2 uM Trametinib as Min control. • 2. Incubate cell plate for 3 hrs in the incubator. • Detection with cisbio pERK HTRF kit • 1. […] At the end of the compound treatment, flick-off the media. • 3. Add 35 μL of lysis buffer per well using a Multidrop Combi. Then place on a plate agitator shaking at 300 rpm at 4° C. for 40 mins. • 4. Make up the HTRF antibody buffer. For each assay plate, mix 50 μL of d2-conjugate antibody with 950 μL of detection buffer. Similarly, mix 50 μL of Cryptate antibody with 950 μL of detection buffer. Then mix the two diluted antibodies together. • 5. Dispense 3.4 μL the antibody buffer to wells of an empty assay plate. Seal the plate and centrifuge plate 30 sec×1000 rpm. • 6. At the end of the 4° C. lysis, centrifuge the lysate plates 3 mins×1500 rpm. • 7. Use the Bravo to transfer 13.6 μL of lysate from cell culture plate to assay plate.
Then incubate assay plate for 2 hrs at room temperature. […] At the end of incubation, read plate on the Envision after centrifuging plate 30 sec× • 1000 rpm.

KRas G12V, sequence (P01116 1-169 isoform P01116-2 G12V): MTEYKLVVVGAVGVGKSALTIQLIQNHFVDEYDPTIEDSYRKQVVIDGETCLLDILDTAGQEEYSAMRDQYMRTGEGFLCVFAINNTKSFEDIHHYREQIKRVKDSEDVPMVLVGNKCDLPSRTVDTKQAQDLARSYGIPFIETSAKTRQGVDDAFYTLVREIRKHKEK
KRas G12R, sequence (P01116 1-169 isoform P01116-2 G12R): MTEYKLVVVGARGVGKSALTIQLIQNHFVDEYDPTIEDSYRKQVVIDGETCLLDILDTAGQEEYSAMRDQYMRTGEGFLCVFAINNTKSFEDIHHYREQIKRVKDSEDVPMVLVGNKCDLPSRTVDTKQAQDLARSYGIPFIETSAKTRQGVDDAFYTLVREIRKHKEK
KRas G12D, sequence (P01116 1-169 isoform P01116-2 G12D): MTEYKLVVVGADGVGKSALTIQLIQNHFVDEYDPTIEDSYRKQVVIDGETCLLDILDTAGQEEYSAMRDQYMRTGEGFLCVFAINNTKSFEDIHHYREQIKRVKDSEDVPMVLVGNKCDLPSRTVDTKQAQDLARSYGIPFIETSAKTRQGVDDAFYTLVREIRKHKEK
KRas WT, sequence (P01116 1-169 isoform P01116-2): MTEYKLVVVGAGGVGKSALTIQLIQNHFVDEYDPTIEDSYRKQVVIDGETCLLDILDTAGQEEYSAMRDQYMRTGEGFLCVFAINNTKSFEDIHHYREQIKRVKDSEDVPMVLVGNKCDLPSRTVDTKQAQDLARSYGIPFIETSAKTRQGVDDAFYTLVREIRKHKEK
KRas G12C, sequence (P01116 1-169 isoform P01116-2 G12C): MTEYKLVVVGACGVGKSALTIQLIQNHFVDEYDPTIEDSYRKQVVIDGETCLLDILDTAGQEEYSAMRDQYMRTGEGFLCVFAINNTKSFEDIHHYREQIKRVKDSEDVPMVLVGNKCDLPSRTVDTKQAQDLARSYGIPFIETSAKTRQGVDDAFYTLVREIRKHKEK

SMILES	pIC50 [1]	pIC50 [2]	pIC50 [3]	pIC50 [4]	pIC50 [5]	pIC50 [6]	pIC50 [7]	pIC50 [8]	pIC50 [9]	pIC50 [10]
CCc1c(F)ccc2cc(O)cc(-c3ncc4c(NCC(N)CC(=O)O)nc(OC[C@@]56CCCN5C[C@H](F)C6)nc4c3F)c12 (single isomer, unassigned) [Example 374]	7.82	≥ 8.70		≤ 5.00	8.05	5.03				
CCc1c(F)ccc2cc(O)cc(-c3ncc4c(NCC5CCC(=O)N5)nc(OC[C@@]56CCCN5C[C@H](F)C6)nc4c3F)c12 (stereo partly drawn) [Example 371, 5-(((7-(8-ethyl-7-fluoro-3-hydroxynaphthalen-1-yl)-8-fluoro-2-(((2R,7aS)-2-fluorohexahydro-1H-pyrrolizin-7a-yl)methoxy)pyrido[4,3-d]pyrimidin-4-yl)amino)methyl)pyrrolidin-2-one]	8.30	8.15	6.41	5.03	≥ 8.70	≤ 4.70	≤ 5.00			
CCc1c(F)ccc2cc(O)cc(-c3ncc4c(NCCC5CNC(=O)C5)nc(OC[C@@]56CCCN5C[C@H](F)C6)nc4c3F)c12 (stereo partly drawn) [Example 376, 4-(2-((7-(8-ethyl-7-fluoro-3-hydroxynaphthalen-1-yl)-8-fluoro-2-(((2R,7aS)-2-fluorotetrahydro-1H-pyrrolizin-7a(5H)-yl)methoxy)pyrido[4,3-d]pyrimidin-4-yl)amino)ethyl)pyrrolidin-2-one]	8.40	7.80		5.19	8.52	≤ 5.00				
CCc1c(F)ccc2cc(O)cc(-c3ncc4c(NCCN5CC(=O)NC5=O)nc(OC[C@@]56CCCN5C[C@H](F)C6)nc4c3F)c12 [Example 378, 1-(2-((7-(8-ethyl-7-fluoro-3-hydroxynaphthalen-1-yl)-8-fluoro-2-(((2R,7aS)-2-fluorohexahydro-1H-pyrrolizin-7a-yl)methoxy)pyrido[4,3-d]pyrimidin-4-yl)amino)ethyl)imidazolidine-2,4-dione]	7.60	6.98		≤ 5.00	7.85	≤ 5.00				
CCc1c(F)ccc2cc(O)cc(-c3ncc4c(NCCC5NC(=O)NC5=O)nc(OC[C@@]56CCCN5C[C@H](F)C6)nc4c3F)c12 (stereo partly drawn) [Example 383, 5-(2-((7-(8-ethyl-7-fluoro-3-hydroxynaphthalen-1-yl)-8-fluoro-2-(((2R,7aS)-2-fluorohexahydro-1H-pyrrolizin-7a-yl)methoxy)pyrido[4,3-d]pyrimidin-4-yl)amino)ethyl) imidazolidine-2,4-dione]	8.10	7.89		≤ 5.00	8.52	≤ 5.00				
CCc1c(F)ccc2cc(O)cc(-c3ncc4c(N5CCCC6(CC(=O)N6)C5)nc(OCC5(CN(C)C)CC5)nc4c3F)c12 (stereo not drawn) [Example 513, 6-(2-((1-((dimethylamino)methyl)cyclopropyl)methoxy)-7-(8-ethyl-7-fluoro-3-hydroxynaphthalen-1-yl)-8-fluoropyrido[4,3-d]pyrimidin-4-yl)-1,6-diazaspiro[3.5]nonan-2-one]	8.52	≥ 8.70	6.66		≥ 8.70	5.88	≤ 5.00			6.06
CN(C)CC1(COc2nc(N3CCC[C@@](C)(O)C3)c3cnc(-c4cc(O)cc(Cl)c4C4CC4)c(F)c3n2)CC1 [Example 517, (R)-1-(7-(3-chloro-2-cyclopropyl-5-hydroxyphenyl)-2-((1-((dimethylamino)methyl)cyclopropyl)methoxy)-8-fluoropyrido[4,3-d]pyrimidin-4-yl)-3-methylpiperidin-3-ol]	8.22	≥ 8.70	7.38		8.52	6.69	≤ 5.00			6.49

Other lines, results leading:

pIC50 [1]	pIC50 [2]	pIC50 [3]	pIC50 [4]	pIC50 [5]	pIC50 [6]	pIC50 [7]	pIC50 [8]	pIC50 [9]	pIC50 [10]	SMILES
≥ 8.70	8.30	6.99	5.42	≥ 8.70	5.39	≤ 5.00				CCc1c(F)ccc2cc(O)cc(-c3ncc4c(NCC5CC(=O)N5)nc(OC[C@@]56CCCN5C[C@H](F)C6)nc4c3F)c12 (single isomer, unassigned) [Example 373]
7.74	8.05	6.57	5.89	8.22	5.76	≤ 5.00	8.05	8.05		CCc1c(F)ccc2cc(O)cc(-c3ncc4c(N5CCC[C@]6(C5)C[C@](C)(O)C6)nc(OCC56CCCN5CCC6)nc4c3F)c12 [Example 328, trans-6-(7-(8-ethyl-7-fluoro-3-hydroxynaphthalen-1-yl)-8-fluoro-2-((hexahydro-1H-pyrrolizin-7a-yl)methoxy)pyrido[4,3-d]pyrimidin-4-yl)-2-methyl-6-azaspiro[3.5]nonan-2-ol]
7.32	7.64	5.98		7.55	5.31	≤ 5.00			5.52	CCc1c(F)ccc2cc(O)cc(-c3ncc4c(N5CCCC6(C5)C[S+]([O-])C6)nc(OC[C@@]56CCCN5C[C@H](F)C6)nc4c3F)c12 (stereo partly drawn) [Example 484, 6-(7-(8-ethyl-7-fluoro-3-hydroxynaphthalen-1-yl)-8-fluoro-2-(((2R,7aS)-2-fluorohexahydro-1H-pyrrolizin-7a-yl)methoxy)pyrido[4,3-d]pyrimidin-4-yl)-2-thia-6-azaspiro[3.5]nonane 2-oxide]
8.22	8.40	6.74		8.40	5.77	≤ 5.00			5.81	CCc1c(F)ccc2cc(O)cc(-c3ncc4c(N5C[C@H](O)CC[C@H](O)C5)nc(OC[C@@]56CCCN5C[C@H](F)C6)nc4c3F)c12 [Example 491, (3R,6S)-1-(7-(8-ethyl-7-fluoro-3-hydroxynaphthalen-1-yl)-8-fluoro-2-(((2R,7aS)-2-fluorohexahydro-1H-pyrrolizin-7a-yl)methoxy)pyrido[4,3-d]pyrimidin-4-yl)azepane-3,6-diol]
6.99	6.63	6.62		6.98	5.96	≤ 5.00			5.72	CCc1c(F)ccc2cc(O)cc(-c3ncc4c(N5CCOCC6(CCOCC6)C5)nc(OC[C@@]56CCCN5C[C@H](F)C6)nc4c3F)c12 [Example 500, 5-ethyl-6-fluoro-4-(8-fluoro-2-(((2R,7aS)-2-fluorohexahydro-1H-pyrrolizin-7a-yl)methoxy)-4-(3,8-dioxa-11-azaspiro[5.6]dodecan-11-yl)pyrido[4,3-d]pyrimidin-7-yl)naphthalen-2-ol]
6.75	6.22	6.65		6.77	5.69	≤ 5.00			5.49	CCc1c(F)ccc2cc(O)cc(-c3ncc4c(N5CCCOC(C)(C)C5)nc(OC[C@@]56CCCN5C[C@H](F)C6)nc4c3F)c12 [Example 501, 4-(4-(2,2-dimethyl-1,4-oxazepan-4-yl)-8-fluoro-2-(((2R,7aS)-2-fluorohexahydro-1H-pyrrolizin-7a-yl)methoxy)pyrido[4,3-d]pyrimidin-7-yl)-5-ethyl-6-fluoronaphthalen-2-ol]
6.22	6.20	5.71		6.34	5.68	≤ 5.00			5.19	CCc1c(F)ccc2cc(O)cc(-c3ncc4c(N5CCOC6(CCS(=O)(=O)CC6)C5)nc(OC[C@@]56CCCN5C[C@H](F)C6)nc4c3F)c12 [Example 502, 4-(7-(8-ethyl-7-fluoro-3-hydroxynaphthalen-1-yl)-8-fluoro-2-(((2R,7aS)-2-fluorohexahydro-1H-pyrrolizin-7a-yl)methoxy)pyrido[4,3-d]pyrimidin-4-yl)-1-oxa-9-thia-4-azaspiro[5.5]undecane 9,9-dioxide]
6.91	6.52	≤ 5.00		7.09	≤ 5.00	≤ 5.00			≤ 5.00	CCc1c(F)ccc2cc(O)cc(-c3ncc4c(N5CCOC6(CCS(=N)(=O)CC6)C5)nc(OC[C@@]56CCCN5C[C@H](F)C6)nc4c3F)c12 (stereo partly drawn) [Example 503, 4-(7-(8-ethyl-7-fluoro-3-hydroxynaphthalen-1-yl)-8-fluoro-2-(((2R,7aS)-2-fluorohexahydro-1H-pyrrolizin-7a-yl)methoxy)pyrido[4,3-d]pyrimidin-4-yl)-9-imino-1-oxa-9-thia-4-azaspiro[5.5]undecane 9-oxide]
